# From the kinase profiling compilation of Christmann-Franck et al. (2016)
# How the values were obtained:
# Test in all cases: radiometric filter-binding kinase assay
# [1] = molecular target: ABL1 (human) (UniProt P00519); details: compound 100.0 µM; ATP 5 µM
# [2] = test system: AKT2 (human), P31751 [S474D]; details: compound 100.0 µM; ATP 50 µM
# [3] = molecular target: AURKB (human) (UniProt Q96GD4); details: compound 100.0 µM; ATP 20 µM
# [4] = molecular target: CAMKK2 (human) (UniProt Q96RR4); details: compound 100.0 µM; ATP 20 µM
# [5] = molecular target: CDK2 CCNA2 (human) (UniProt P20248+P24941); details: compound 100.0 µM; ATP 20 µM
# [6] = molecular target: CSK (human) (UniProt P41240); details: compound 100.0 µM; ATP 20 µM
# [7] = molecular target: CaMK1 (human) (UniProt Q14012); details: compound 100.0 µM; ATP 50 µM
# [8] = molecular target: DYRK1A (human) (UniProt Q13627); details: compound 100.0 µM; ATP 50 µM
# [9] = molecular target: DYRK2 (human) (UniProt Q92630); details: compound 100.0 µM; ATP 50 µM
# [10] = molecular target: EPHB2 (human) (UniProt P29323); details: compound 100.0 µM; ATP 20 µM
# [11] = molecular target: EPHB3 (human) (UniProt P54753); details: compound 100.0 µM; ATP 20 µM
# [12] = molecular target: FLT1 (human) (UniProt P17948); details: compound 100.0 µM; ATP 20 µM
# [13] = test system: LCK (mouse); details: compound 100.0 µM; ATP 50 µM; accession and sequence are those of the human protein
# [14] = molecular target: MAP2K1 (human) (UniProt Q02750); details: compound 100.0 µM; ATP 5 µM
# [15] = molecular target: MAP2K2 (human) (UniProt P36507); details: compound 100.0 µM; ATP 5 µM
# [16] = molecular target: MAP3K5 (human) (UniProt Q99683); details: compound 100.0 µM; ATP 50 µM
# [17] = molecular target: MAPKAPK2 (human) (UniProt P49137); details: compound 100.0 µM; ATP 20 µM
# [18] = molecular target: MARK1 (human) (UniProt Q9P0L2); details: compound 100.0 µM; ATP 20 µM
# [19] = molecular target: MARK2 (human) (UniProt Q7KZI7); details: compound 100.0 µM; ATP 20 µM
# [20] = molecular target: MARK3 (human) (UniProt P27448); details: compound 100.0 µM; ATP 5 µM
# [21] = molecular target: MARK4 (human) (UniProt Q96L34); details: compound 100.0 µM; ATP 50 µM
# [22] = molecular target: MKNK1 (human) (UniProt Q9BUB5); details: compound 100.0 µM; ATP 50 µM
# [23] = molecular target: MKNK2 (human) (UniProt Q9HBH9); details: compound 100.0 µM; ATP 50 µM
# [24] = molecular target: MST4 (human) (UniProt Q9P289); details: compound 100.0 µM; ATP 20 µM
# [25] = molecular target: NEK2 (human) (UniProt P51955); details: compound 100.0 µM; ATP 50 µM
# [26] = molecular target: PHKG1 (human) (UniProt Q16816); details: compound 100.0 µM; ATP 50 µM
# [27] = molecular target: PIM1 (human) (UniProt P11309); details: compound 100.0 µM; ATP 20 µM
# [28] = molecular target: PIM3 (human) (UniProt Q86V86); details: compound 100.0 µM; ATP 20 µM
# [29] = molecular target: PKN2 (human) (UniProt Q16513); details: compound 100.0 µM; ATP 5 µM
# [30] = molecular target: PTK6 (human) (UniProt Q13882); details: compound 100.0 µM; ATP 20 µM
# [31] = test system: ROCK2 (rat); details: compound 100.0 µM; ATP 20 µM; accession and sequence are those of the human protein
# [32] = molecular target: RPS6KA1 KD1 KD2 (human) (UniProt Q15418); details: compound 100.0 µM; ATP 50 µM
# [33] = molecular target: SRPK1 (human) (UniProt Q96SB4); details: compound 100.0 µM; ATP 50 µM
# [34] = molecular target: STK3 (human) (UniProt Q13188); details: compound 100.0 µM; ATP 20 µM
# [35] = molecular target: STK33 (human) (UniProt Q9BYT3); details: compound 100.0 µM; ATP 50 µM
# [36] = molecular target: SYK (human) (UniProt P43405); details: compound 100.0 µM; ATP 20 µM
# [37] = molecular target: TEK (human) (UniProt Q02763); details: compound 100.0 µM; ATP 20 µM
# [38] = molecular target: TTK (human) (UniProt P33981); details: compound 100.0 µM; ATP 20 µM
# [39] = molecular target: ZAP70 (human) (UniProt P43403); details: compound 100.0 µM; ATP 5 µM
# AKT2 (human), P31751 [S474D], sequence (P31751 whole entry S474D, looked up): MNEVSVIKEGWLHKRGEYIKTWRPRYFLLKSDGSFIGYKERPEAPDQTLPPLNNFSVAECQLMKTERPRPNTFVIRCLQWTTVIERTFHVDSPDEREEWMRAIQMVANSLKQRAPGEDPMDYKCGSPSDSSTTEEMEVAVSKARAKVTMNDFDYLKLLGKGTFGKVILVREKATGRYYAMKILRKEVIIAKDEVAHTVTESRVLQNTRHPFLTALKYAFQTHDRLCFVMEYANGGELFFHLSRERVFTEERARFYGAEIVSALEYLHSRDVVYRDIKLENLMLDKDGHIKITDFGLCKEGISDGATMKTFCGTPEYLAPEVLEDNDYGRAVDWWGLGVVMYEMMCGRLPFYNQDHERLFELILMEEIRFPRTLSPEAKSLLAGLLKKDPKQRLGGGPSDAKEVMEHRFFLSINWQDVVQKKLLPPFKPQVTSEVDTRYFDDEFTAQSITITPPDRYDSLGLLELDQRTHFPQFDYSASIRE
# MARK1 (human), sequence (Q9P0L2 whole entry, looked up): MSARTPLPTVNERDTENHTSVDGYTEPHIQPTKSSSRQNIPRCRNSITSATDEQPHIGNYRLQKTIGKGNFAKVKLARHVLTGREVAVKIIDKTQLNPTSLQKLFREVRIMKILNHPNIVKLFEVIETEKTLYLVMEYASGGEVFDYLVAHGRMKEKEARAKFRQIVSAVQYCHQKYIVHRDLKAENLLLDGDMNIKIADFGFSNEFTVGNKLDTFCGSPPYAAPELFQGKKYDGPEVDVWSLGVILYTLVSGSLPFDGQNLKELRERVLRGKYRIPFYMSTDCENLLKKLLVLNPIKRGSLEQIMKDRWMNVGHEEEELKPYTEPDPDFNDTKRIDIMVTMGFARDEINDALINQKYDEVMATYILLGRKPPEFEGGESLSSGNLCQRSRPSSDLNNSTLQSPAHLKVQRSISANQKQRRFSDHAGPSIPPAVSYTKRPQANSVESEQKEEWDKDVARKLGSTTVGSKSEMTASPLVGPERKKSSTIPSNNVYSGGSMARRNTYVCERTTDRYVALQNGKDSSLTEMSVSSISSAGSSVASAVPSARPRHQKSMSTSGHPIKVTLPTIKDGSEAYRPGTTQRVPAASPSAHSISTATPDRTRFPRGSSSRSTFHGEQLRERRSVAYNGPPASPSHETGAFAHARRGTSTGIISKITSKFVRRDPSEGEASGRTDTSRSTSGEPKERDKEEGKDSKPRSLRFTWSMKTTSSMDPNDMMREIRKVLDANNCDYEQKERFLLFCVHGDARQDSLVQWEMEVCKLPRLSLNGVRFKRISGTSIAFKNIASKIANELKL
# MAP2K2 (human), sequence (P36507 whole entry, looked up): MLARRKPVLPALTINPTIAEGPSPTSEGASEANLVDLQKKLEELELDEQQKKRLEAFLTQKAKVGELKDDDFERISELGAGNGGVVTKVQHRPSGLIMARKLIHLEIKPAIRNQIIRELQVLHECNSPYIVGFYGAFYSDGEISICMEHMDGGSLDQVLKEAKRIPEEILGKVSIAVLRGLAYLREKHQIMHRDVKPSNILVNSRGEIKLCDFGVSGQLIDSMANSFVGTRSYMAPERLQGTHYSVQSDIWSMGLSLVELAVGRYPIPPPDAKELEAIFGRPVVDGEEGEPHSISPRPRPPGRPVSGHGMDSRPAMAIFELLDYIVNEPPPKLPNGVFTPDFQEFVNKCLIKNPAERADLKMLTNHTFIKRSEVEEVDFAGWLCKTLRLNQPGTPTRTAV
# MARK3 (human), sequence (P27448 whole entry, looked up): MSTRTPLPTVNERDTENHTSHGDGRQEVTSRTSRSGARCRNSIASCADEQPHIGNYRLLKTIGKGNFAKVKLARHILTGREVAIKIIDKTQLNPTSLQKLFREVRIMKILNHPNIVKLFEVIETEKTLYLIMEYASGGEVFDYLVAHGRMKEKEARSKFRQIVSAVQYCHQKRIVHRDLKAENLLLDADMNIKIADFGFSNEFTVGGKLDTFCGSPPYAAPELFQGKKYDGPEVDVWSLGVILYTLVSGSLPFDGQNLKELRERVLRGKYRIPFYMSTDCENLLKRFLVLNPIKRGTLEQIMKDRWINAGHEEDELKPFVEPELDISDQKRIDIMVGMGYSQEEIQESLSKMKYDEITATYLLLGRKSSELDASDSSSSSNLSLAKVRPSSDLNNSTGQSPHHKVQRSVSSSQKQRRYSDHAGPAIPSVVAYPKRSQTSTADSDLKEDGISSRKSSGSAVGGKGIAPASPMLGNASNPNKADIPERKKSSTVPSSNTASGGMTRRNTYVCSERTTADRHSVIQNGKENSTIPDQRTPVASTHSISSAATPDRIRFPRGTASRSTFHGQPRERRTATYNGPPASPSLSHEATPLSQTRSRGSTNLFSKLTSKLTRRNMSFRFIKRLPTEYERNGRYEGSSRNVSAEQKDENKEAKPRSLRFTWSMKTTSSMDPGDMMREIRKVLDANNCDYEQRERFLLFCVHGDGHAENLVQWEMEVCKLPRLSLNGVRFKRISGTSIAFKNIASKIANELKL
# MAP2K1 (human), sequence (Q02750 whole entry, looked up): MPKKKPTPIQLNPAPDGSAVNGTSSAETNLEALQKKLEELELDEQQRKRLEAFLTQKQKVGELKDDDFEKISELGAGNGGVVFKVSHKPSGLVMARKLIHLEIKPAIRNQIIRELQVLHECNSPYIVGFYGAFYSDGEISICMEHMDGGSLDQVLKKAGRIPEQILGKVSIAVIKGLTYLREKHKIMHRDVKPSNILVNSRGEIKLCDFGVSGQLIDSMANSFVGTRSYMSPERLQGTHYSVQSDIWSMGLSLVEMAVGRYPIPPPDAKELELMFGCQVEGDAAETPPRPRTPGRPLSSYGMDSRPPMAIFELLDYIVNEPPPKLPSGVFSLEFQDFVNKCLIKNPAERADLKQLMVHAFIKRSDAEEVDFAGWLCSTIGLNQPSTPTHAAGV
# MST4 (human), sequence (Q9P289 whole entry, looked up): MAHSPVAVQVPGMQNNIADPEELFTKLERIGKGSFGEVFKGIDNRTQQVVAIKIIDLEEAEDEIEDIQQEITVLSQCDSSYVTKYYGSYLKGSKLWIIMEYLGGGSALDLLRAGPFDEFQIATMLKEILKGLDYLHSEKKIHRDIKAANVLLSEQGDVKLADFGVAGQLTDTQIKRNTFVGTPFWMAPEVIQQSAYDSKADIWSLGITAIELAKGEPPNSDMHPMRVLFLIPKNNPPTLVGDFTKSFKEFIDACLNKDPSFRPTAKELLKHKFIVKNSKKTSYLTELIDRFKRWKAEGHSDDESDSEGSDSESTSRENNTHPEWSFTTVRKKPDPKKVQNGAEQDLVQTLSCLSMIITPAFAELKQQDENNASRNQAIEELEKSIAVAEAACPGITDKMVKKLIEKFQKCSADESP
# SRPK1 (human), sequence (Q96SB4 whole entry, looked up): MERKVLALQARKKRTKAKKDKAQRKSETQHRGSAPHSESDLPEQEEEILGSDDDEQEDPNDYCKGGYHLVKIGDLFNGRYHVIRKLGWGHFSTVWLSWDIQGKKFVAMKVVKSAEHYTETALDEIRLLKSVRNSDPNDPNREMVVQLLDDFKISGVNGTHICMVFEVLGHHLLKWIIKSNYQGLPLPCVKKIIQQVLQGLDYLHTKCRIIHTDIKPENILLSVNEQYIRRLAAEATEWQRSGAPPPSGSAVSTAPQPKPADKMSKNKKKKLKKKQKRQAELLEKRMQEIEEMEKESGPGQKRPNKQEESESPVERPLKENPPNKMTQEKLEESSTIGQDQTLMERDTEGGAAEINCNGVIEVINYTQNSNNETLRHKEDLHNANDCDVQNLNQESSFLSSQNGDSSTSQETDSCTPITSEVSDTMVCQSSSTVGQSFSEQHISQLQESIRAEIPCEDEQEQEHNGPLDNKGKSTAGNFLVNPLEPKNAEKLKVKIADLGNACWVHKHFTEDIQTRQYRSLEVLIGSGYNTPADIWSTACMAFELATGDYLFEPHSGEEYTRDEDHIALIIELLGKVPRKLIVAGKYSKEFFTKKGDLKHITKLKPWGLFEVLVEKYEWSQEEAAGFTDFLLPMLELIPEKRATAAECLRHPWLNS
# DYRK2 (human), sequence (Q92630 whole entry, looked up): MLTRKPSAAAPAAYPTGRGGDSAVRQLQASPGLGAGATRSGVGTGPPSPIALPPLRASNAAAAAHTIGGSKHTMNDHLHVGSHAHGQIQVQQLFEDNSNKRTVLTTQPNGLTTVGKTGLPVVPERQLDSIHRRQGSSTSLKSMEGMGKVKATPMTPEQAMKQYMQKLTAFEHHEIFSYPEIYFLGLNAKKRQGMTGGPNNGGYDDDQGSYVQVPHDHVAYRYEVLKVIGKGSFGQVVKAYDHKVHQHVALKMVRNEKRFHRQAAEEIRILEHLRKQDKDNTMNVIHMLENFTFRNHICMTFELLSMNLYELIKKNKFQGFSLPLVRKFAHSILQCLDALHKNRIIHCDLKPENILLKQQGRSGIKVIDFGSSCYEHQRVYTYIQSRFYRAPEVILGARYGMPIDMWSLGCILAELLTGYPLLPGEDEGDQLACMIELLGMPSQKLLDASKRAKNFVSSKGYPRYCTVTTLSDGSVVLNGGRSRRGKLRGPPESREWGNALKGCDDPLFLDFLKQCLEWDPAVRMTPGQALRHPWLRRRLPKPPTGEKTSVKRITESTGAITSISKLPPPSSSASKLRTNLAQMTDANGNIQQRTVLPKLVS
# MAPKAPK2 (human), sequence (P49137 whole entry, looked up): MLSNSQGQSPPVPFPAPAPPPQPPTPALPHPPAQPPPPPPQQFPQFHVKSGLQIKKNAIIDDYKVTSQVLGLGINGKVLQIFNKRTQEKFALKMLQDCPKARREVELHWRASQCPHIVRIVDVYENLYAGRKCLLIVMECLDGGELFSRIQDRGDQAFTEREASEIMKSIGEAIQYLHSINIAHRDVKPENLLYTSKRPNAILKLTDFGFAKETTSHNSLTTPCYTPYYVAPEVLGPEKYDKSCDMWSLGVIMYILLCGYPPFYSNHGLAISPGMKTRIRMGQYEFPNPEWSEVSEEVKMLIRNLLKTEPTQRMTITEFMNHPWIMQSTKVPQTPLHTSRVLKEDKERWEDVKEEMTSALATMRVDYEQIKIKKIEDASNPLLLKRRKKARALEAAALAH
SMILES,inhibition [1],inhibition [2],inhibition [3],inhibition [4],inhibition [5],inhibition [6],inhibition [7],inhibition [8],inhibition [9],inhibition [10],inhibition [11],inhibition [12],inhibition [13],inhibition [14],inhibition [15],inhibition [16],inhibition [17],inhibition [18],inhibition [19],inhibition [20],further results
Nc1nc2cnc(-c3ccccc3)cn2n1,72%,32%,76%,54%,54%,71%,41%,77%,63%,30%,54%,82%,75%,37%,35%,32%,56%,0%,2%,59%,inhibition [21]: 44%; inhibition [22]: 71%; inhibition [23]: 66%; inhibition [24]: 41%; inhibition [25]: 77%; inhibition [26]: 83%; inhibition [27]: 30%; inhibition [28]: 55%; inhibition [29]: 44%; inhibition [30]: 53%; inhibition [31]: 52%; inhibition [32]: 34%; inhibition [33]: 41%; inhibition [34]: 6%; inhibition [35]: 20%; inhibition [36]: 84%; inhibition [37]: 39%; inhibition [38]: 34%; inhibition [39]: 0%
Cc1cccc(C)c1-c1cn2nc(N)nc2cn1,14%,37%,29%,21%,17%,24%,52%,19%,21%,0%,35%,22%,37%,22%,28%,15%,14%,15%,0%,0%,inhibition [21]: 24%; inhibition [22]: 24%; inhibition [23]: 30%; inhibition [24]: 21%; inhibition [25]: 38%; inhibition [26]: 41%; inhibition [27]: 18%; inhibition [28]: 26%; inhibition [29]: 93%; inhibition [30]: 15%; inhibition [31]: 19%; inhibition [32]: 21%; inhibition [33]: 31%; inhibition [34]: 9%; inhibition [35]: 12%; inhibition [36]: 26%; inhibition [37]: 6%; inhibition [38]: 20%; inhibition [39]: 0%
CC(=O)Nc1nc2cnc(-c3c(C)cccc3C)cn2n1,18%,43%,0%,18%,0%,0%,35%,0%,0%,0%,4%,9%,0%,0%,0%,0%,0%,0%,0%,0%,inhibition [21]: 17%; inhibition [22]: 0%; inhibition [23]: 0%; inhibition [24]: 0%; inhibition [25]: 0%; inhibition [26]: 0%; inhibition [27]: 9%; inhibition [28]: 1%; inhibition [29]: 0%; inhibition [30]: 0%; inhibition [31]: 0%; inhibition [32]: 0%; inhibition [33]: 10%; inhibition [34]: 0%; inhibition [35]: 0%; inhibition [36]: 10%; inhibition [37]: 0%; inhibition [38]: 0%; inhibition [39]: 9%
COc1ccc(-c2cc3c(=O)[nH]cnc3s2)cc1OC,34%,47%,19%,0%,0%,14%,66%,36%,56%,17%,0%,39%,29%,23%,0%,19%,8%,27%,0%,24%,inhibition [21]: 23%; inhibition [22]: 5%; inhibition [23]: 21%; inhibition [24]: 16%; inhibition [25]: 0%; inhibition [26]: 13%; inhibition [27]: 38%; inhibition [28]: 61%; inhibition [29]: 0%; inhibition [30]: 16%; inhibition [31]: 19%; inhibition [32]: 59%; inhibition [33]: 36%; inhibition [34]: 9%; inhibition [35]: 0%; inhibition [36]: 0%; inhibition [37]: 0%; inhibition [38]: 25%; inhibition [39]: 0%
O=c1cc(-c2ccccc2F)nc2[nH]ccn12,3%,16%,0%,0%,21%,8%,9%,31%,37%,0%,0%,39%,23%,43%,18%,8%,22%,5%,0%,11%,inhibition [21]: 0%; inhibition [22]: 31%; inhibition [23]: 26%; inhibition [24]: 13%; inhibition [25]: 29%; inhibition [26]: 8%; inhibition [27]: 67%; inhibition [28]: 83%; inhibition [29]: 2%; inhibition [30]: 30%; inhibition [31]: 29%; inhibition [32]: 16%; inhibition [33]: 0%; inhibition [34]: 27%; inhibition [35]: 12%; inhibition [36]: 20%; inhibition [37]: 0%; inhibition [38]: 11%; inhibition [39]: 0%
